The results in this text go back to ChEMBL document CHEMBL1201862, “PubChem BioAssay data set” (2004).

A short description of test [1]: A375 melanoma cell viability loss, dose response, counter-screen for MITF inhibitor project, CellTiter-Glo luminescence, dry powder, set 4 (AID 624364).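 Also: A375 melanoma cells are MITF independent so this is a counter screen.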 The test is classed as functional, cell-based. The settings on record: A-375.
A short description of test [2]: A375 melanoma cell cytotoxicity, dose response, counter-screen for MITF inhibitor project, CellTiter-Glo luminescence, dry powder, set 2 (AID 624489).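 Also: actives are compounds lowering A375 viability meaning general cytotoxicity.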 The format is functional, cell-based. The settings on record: A-375.
A short description of test [3]: Artemis endonuclease inhibitor potency, dose response, biochemical, fluorescence intensity (AID 720701).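 Also: Artemis endonuclease enzyme.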 The test is classed as functional.
The target of another test is Paired box protein Pax-8 (Homo sapiens, UniProt Q06710). The test can be described thus: inhibitors of PAX8-driven TPO luciferase reporter, dose response, RMG-I cells, cherry-pick (AID 687027).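 Also: luciferase reporter driven by Pax8 target thyroperoxidase promoter measured by SteadyGlo luminescence.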 The format is functional, cell-based.
A short description of test [4]: IGROV1 ovarian cancer cell cytotoxicity, dose response, PAX8 inhibitor project, plate reader, dry powder samples (AID 743043). The format is functional, cell-based. The following applies: IGROV-1.
The nature of test [5]: inhibitors of PGC1a acetylation in cells, dose response, cell-based, cherry-picked samples (AID 720514).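 Also: potency may reflect raised or lowered acetylation signal.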 The test is classed as functional.
Test [6] in a line: HepG2 cell cytotoxicity, dose response, cytotoxicity control, cherry-picked samples (AID 1159577). The format is functional, cell-based.
Test [7] in a line: P. falciparum Dd2 growth inhibitors, dose response, SYBR Green, cherry-picked samples (AID 1159567). The test is classed as functional, cell-based.
Test [8] can be described thus: NIH:OVCAR-3 ovarian cancer cell cytotoxicity, dose response, PAX8 inhibitor project, plate reader, dry powder samples (AID 743044). The format is functional, cell-based.
The nature of test [9]: CTGF mRNA reduction under YAP1 overexpression, dose response, mechanism study for YAP1 pathway inhibitor project, DLD1 cells, RT-qPCR, cherry-pick (AID 1053127). The test is classed as functional, cell-based. The settings on record: DLD-1. For orientation: In qPCR the cycle at which signal appears reflects the starting amount.
Test [10] concerns the target 1-phosphatidylinositol 4,5-bisphosphate phosphodiesterase beta-3 (Homo sapiens, UniProt Q01970). The test can be described thus: Fluorescence-based biochemical high throughput dose response assay to identify inhibitors of phospholipase C isozymes (PLC-B3).
The target of test [11] is 1-phosphatidylinositol 4,5-bisphosphate phosphodiesterase gamma-1 (Homo sapiens, UniProt P19174). The test can be described thus: Counterscreen for inhibitors of phospholipase C isozymes (PLC-B3): Fluorescence-based biochemical high throughput dose response assay to identify inhibitors of phospholipase C isozymes (PLC-gamma1). On the technique in general: The purpose of a counterscreen is to sort out artefacts and off-target activity.

Test [12] can be described thus: T. cruzi growth inhibition in host cells, dose response, cell-based, plate reader, dry powder, set 2 (AID 652275). The test is classed as functional.
The nature of test [13]: Counterscreen for antagonists of the human trace amine associated receptor 1 (hTAAR1): Fluorescence-based cell-based high throughput dose response assay to identify nonselective Ga16 antagonists. The format is functional.
The nature of test [14]: Counterscreen for […] of the human trace amine associated receptor 1 (TAAR1): Fluorescence-based cell-based high throughput dose response assay to identify nonselective Ga16 agonists. The format is functional.
The target of test [15] is T1, Trace amine-associated receptor 1 (Homo sapiens, UniProt Q96RJ0).
T1 sequence (Q96RJ0 whole entry): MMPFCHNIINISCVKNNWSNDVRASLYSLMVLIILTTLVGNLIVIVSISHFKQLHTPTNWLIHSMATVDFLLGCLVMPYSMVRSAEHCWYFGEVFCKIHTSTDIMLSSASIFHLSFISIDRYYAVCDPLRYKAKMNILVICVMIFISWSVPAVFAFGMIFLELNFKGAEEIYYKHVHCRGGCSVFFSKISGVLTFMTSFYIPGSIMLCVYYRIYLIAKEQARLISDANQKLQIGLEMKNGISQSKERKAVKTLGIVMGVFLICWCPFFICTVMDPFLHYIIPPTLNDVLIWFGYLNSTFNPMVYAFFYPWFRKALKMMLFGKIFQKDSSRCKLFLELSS
The test can be described thus: Counterscreen for antagonists of the human trace amine associated receptor 1 (hTAAR1): Fluorescence-based cell-based high throughput dose response assay to identify TAAR1 Agonists. The format is functional.

For test [16], the target named is T1, Trace amine-associated receptor 1. The test can be described thus: Fluorescence-based cell-based high throughput dose response assay to identify antagonists of the human trace amine associated receptor 1 (TAAR1). The test is classed as functional.
The nature of test [17]: cytotoxicity in OVCAR8 ovarian cancer cells, dose response, PAX8 project, cell-based, plate reader, dry powder samples (AID 743197). The format is functional. The settings on record: OVCAR-8.
Test [18] in a line: A2780 ovarian cancer cell cytotoxicity, dose response, cytotoxicity control, plate reader, dry powder samples (AID 743046). The test is classed as functional, cell-based.
The nature of test [19]: HepG2 cell cytotoxicity, dose response, cytotoxicity control, ATP luminescence, cherry-pick, activator set 2 (AID 1053143). The format is functional, cell-based.
Test [20] deals with T2, DNA repair protein RAD52 homolog (Homo sapiens, UniProt P43351).
T2 sequence (P43351 whole entry): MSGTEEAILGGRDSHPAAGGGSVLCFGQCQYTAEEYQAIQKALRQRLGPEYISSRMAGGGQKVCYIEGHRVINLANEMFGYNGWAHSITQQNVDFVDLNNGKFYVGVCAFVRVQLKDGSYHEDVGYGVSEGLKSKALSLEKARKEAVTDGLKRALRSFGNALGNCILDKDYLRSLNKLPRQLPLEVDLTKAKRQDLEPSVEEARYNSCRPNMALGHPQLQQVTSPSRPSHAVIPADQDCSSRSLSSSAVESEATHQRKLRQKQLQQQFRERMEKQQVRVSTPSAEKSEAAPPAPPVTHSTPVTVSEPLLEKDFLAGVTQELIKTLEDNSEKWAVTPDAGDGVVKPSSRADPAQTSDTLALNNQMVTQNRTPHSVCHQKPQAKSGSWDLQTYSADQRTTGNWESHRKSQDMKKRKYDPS
The test is classed as functional, biochemical.

Test [21] is described as follows: A549 cell cytotoxicity, dose response, cytotoxicity control, 24 h, CellTiter-Glo luminescence, cherry-picks (AID 1053115). The test is classed as functional, cell-based. The following applies: A549, 24 h.
Test [22] in a line: cytotoxicity dependent on PAX8, dose response, cell-based, plate reader, dry powder (AID 743049). The test is classed as functional.
Test [23] has as its target C-C chemokine receptor type 6 (Homo sapiens, UniProt P51684). The test can be described thus: SAR analysis of small molecule antagonists of the CXCR6 receptor using a CCR6 receptor luminescent beta-arrestin counterscreen. The test is classed as functional.
Test [24] concerns the target C-X-C chemokine receptor type 4 (Homo sapiens, UniProt P61073). The test can be described thus: SAR analysis of small molecule antagonists of the CXCR6 receptor using a CXCR4 receptor luminescent beta-arrestin counterscreen. The format is functional.
Test [25] has as its target T3, High affinity choline transporter 1 (Homo sapiens, UniProt Q9GZV3).
T3 sequence (Q9GZV3 whole entry): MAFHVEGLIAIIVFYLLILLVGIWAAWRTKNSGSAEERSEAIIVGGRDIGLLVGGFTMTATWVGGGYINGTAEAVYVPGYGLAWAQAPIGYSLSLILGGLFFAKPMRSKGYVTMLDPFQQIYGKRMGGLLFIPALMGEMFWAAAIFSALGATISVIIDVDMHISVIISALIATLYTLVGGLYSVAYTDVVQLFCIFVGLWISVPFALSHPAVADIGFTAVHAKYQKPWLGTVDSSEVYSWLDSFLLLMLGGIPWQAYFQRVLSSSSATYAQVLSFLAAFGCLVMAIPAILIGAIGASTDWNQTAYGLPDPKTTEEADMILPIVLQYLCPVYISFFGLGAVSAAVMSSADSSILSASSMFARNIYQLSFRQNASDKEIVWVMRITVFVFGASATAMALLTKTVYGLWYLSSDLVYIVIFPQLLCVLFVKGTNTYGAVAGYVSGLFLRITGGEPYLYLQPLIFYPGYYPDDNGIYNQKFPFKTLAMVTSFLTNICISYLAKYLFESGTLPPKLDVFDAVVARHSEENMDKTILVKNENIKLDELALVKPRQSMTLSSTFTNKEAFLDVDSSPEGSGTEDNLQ
The test can be described thus: CHT choline uptake inhibitors, dose response, cell-based, HEK-293 hCHT, [3H]-choline uptake (AID 652177). The test is classed as functional.

For test [26], the target named is Disintegrin and metalloproteinase domain-containing protein 17 (Homo sapiens, UniProt P78536). The test can be described thus: exosite inhibitors of ADAM17, dose response, biochemical (AID 743260).
Test [27] in a line: ADAM10 protease inhibitors, dose response, selectivity assay for ADAM17 exosite inhibitor project, biochemical, FRET peptide substrate, recombinant human ADAM10 (AID 743259).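 Also: ADAM10 enzyme cleaving a FRET peptide substrate.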
For the next test, the target named is Kallikrein-7 (Homo sapiens, UniProt P49862). The test can be described thus: Fluorescence Intensity-based biochemical primary high throughput dose response assay to identify activators of kallikrein-7 (K7) zymogen.
A short description of test [28]: HIV Env cell-cell fusion inhibitors, dose response, HIV entry, plate reader, dry powder (AID 687023). The test is classed as functional, cell-based.
A short description of test [29]: CEM21 cell cytotoxicity, dose response, cytotoxicity control, plate reader, dry powder (AID 687026). The format is functional, cell-based.
The nature of test [30]: cells. The settings on record: HEK293.
Test [31] is described as follows: cells. The following applies: A549.
A short description of test [32]: HepG2 cell cytotoxicity, dose response, cytotoxicity control, ATP luminescence, cherry-pick, set 6 (AID 1053125). The test is classed as functional, cell-based.
The nature of test [33]: cells.

Structures are written as SMILES. Several values for one entry are separate records, joined by “and”; a condition that tells them apart may be missing. Identical values can stand only once. Activity calls are given as the source filed them.

Chain of Paired box protein Pax-8 (Q06710 whole entry): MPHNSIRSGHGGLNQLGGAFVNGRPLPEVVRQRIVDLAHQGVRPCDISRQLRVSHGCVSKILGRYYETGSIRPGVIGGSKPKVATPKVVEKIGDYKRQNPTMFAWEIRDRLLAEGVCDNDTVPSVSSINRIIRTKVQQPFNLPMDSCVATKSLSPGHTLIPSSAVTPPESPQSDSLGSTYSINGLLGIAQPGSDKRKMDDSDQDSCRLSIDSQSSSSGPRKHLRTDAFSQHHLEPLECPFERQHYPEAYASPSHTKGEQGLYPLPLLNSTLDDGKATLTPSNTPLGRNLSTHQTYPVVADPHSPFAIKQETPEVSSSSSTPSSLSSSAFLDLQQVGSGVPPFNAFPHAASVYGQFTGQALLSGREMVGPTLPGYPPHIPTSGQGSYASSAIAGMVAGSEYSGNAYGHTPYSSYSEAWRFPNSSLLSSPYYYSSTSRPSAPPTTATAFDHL
Chain of Kallikrein-7 (P49862 whole entry, the tested form may be a part): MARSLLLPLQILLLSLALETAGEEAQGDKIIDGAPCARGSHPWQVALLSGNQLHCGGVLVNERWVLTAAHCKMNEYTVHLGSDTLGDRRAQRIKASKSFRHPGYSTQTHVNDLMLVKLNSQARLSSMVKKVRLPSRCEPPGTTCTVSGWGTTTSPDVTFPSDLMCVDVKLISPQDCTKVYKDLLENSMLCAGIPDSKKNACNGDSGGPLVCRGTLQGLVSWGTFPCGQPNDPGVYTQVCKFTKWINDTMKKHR
Chain of 1-phosphatidylinositol 4,5-bisphosphate phosphodiesterase beta-3 (Q01970 whole entry): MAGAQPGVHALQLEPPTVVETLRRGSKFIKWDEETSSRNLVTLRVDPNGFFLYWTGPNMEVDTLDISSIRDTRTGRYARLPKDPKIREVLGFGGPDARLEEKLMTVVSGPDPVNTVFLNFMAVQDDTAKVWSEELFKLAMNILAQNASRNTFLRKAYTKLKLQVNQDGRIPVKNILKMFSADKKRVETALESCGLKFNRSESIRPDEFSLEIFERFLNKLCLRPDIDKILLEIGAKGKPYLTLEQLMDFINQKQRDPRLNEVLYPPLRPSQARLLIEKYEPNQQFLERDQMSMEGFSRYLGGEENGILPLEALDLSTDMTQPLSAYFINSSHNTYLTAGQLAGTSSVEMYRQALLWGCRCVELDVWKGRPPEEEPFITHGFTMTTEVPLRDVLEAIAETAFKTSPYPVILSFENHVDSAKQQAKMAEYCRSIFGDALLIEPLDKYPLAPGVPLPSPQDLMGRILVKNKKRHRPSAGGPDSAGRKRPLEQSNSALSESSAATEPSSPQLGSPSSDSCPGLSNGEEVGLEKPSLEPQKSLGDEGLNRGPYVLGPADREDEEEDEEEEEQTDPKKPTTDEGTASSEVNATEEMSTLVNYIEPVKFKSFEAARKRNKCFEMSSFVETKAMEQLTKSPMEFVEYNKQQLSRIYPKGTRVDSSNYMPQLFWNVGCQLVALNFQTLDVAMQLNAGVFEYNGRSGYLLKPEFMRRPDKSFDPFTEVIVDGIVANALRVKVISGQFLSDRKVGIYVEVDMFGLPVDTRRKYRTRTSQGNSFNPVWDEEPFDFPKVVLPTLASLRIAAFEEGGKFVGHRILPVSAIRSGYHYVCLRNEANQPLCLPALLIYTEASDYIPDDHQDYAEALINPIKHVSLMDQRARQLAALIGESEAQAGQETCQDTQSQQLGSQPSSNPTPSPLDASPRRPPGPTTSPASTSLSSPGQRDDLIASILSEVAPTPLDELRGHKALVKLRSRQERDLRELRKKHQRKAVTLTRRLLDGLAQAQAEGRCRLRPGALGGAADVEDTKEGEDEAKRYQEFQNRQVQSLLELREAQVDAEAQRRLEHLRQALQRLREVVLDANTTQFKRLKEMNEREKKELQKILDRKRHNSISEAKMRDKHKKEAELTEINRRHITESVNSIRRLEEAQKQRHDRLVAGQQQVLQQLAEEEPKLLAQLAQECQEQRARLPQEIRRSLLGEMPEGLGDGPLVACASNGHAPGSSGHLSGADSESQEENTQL
Chain of 1-phosphatidylinositol 4,5-bisphosphate phosphodiesterase gamma-1 (P19174 whole entry): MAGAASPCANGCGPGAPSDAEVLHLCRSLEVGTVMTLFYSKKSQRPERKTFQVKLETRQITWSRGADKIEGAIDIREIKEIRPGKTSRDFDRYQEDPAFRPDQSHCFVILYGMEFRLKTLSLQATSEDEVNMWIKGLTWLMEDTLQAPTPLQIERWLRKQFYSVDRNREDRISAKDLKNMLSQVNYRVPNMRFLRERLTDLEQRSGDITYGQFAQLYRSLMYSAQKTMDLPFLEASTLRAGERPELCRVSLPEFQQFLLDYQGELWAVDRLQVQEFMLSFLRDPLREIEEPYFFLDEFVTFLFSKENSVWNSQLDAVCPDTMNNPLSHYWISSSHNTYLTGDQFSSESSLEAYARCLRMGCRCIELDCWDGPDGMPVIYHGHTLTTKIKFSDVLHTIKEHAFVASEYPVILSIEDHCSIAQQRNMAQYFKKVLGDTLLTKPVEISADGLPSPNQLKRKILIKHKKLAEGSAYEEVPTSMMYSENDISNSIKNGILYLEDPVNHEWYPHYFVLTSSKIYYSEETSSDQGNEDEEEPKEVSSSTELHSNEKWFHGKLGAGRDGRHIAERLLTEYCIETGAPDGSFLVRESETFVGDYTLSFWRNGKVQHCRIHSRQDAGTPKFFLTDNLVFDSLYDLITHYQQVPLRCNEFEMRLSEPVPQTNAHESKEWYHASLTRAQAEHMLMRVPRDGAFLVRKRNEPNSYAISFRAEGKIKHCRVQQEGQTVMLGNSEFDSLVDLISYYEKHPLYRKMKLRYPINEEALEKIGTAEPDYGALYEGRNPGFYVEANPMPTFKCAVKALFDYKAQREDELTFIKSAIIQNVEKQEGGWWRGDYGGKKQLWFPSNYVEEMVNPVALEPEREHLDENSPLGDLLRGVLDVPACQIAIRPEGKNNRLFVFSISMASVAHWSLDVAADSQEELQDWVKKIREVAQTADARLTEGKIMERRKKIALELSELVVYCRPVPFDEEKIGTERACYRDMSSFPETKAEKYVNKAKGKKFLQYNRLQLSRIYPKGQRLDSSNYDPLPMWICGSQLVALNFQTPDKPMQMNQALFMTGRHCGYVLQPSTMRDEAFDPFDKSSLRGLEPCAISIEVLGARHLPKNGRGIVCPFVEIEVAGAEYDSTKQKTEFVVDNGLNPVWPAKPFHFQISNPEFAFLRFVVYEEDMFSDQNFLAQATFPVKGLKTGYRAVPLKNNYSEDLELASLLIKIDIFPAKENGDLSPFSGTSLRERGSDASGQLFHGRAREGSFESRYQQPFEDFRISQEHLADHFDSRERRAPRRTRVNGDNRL
Chain of C-X-C chemokine receptor type 4 (P61073 whole entry): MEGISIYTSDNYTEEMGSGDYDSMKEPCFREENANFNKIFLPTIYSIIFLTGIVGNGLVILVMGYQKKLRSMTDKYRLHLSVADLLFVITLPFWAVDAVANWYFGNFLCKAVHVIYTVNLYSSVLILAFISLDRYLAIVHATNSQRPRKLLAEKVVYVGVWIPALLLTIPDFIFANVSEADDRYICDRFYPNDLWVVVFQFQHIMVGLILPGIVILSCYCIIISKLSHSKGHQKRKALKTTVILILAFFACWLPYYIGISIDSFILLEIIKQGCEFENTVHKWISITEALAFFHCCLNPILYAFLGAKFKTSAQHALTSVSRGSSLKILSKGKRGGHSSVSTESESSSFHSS
Chain of Disintegrin and metalloproteinase domain-containing protein 17 (P78536 whole entry, the tested form may be a part): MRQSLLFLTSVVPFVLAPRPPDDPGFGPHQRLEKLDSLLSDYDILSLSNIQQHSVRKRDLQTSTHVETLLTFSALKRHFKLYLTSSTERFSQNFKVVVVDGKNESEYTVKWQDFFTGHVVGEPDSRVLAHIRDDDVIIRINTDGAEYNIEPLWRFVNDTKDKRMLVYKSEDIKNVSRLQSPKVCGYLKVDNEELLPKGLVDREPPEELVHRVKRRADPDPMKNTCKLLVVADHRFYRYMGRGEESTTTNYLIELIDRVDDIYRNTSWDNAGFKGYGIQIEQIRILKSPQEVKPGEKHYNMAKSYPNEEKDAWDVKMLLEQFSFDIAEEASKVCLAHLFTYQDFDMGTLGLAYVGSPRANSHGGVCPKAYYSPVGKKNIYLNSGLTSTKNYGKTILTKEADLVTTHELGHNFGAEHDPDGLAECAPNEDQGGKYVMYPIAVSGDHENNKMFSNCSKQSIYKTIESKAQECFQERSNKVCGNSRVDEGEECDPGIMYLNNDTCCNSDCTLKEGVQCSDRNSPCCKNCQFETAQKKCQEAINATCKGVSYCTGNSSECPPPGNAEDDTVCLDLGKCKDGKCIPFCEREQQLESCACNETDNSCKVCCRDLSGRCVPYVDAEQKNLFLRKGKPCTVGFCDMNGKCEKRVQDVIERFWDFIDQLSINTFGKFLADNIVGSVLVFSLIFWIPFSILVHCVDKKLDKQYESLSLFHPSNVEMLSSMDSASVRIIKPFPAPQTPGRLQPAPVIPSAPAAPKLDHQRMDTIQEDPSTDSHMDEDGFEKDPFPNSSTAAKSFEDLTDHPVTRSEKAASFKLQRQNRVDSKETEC
Chain of C-C chemokine receptor type 6 (P51684 whole entry): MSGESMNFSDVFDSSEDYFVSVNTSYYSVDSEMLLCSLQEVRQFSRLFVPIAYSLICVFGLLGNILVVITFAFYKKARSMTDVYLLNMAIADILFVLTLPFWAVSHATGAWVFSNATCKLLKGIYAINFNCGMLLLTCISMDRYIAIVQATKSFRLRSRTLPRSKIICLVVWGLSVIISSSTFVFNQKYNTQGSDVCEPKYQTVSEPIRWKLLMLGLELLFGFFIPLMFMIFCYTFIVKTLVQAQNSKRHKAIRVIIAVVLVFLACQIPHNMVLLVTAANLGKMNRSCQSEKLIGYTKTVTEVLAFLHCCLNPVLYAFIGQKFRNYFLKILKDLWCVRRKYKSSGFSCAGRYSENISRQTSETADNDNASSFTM

`C=CCNC1=C(N2CCN(CC)CC2)C(=O)c2ccccc2C1=O`: the AC50 in [1] was 29.3 µM (active); in [2], 13.8 µM (active).
On to `Cc1ccc(C(=O)N/C(=C\c2ccc(-c3cc(Cl)ccc3Cl)o2)C(=O)NCc2cccnc2)cc1`, for which the IC50 in test [3] is > 20 µM (inactive).
In the case of `O=C(Nc1ccc(C(F)(F)F)cc1)N1C[C@@H]2N[C@H](C1)[C@@H]2c1ccc(/C=C/c2ccccc2)cc1`, the AC50 is 21.7 µM (active) at Paired box protein Pax-8; 50.8 µM (active) in [4]; 1.57 µM (active) in test [5]; 2.56 µM (active) in test [6]; 2.93 µM (active) in [7]; 36.8 µM (active) in [8].
As for `Cc1ccccc1-c1ccc([C@H]2[C@@H](CO)N3CCCCN(S(=O)(=O)Cc4ccccc4)C[C@@H]23)cc1`, the AC50 in test [9] was > 26 µM (inactive).
Take `O=C(O)CCCN1C(=O)/C(=C\c2ccco2)SC1=S`: the IC50 in test [10] and in test [11] was > 123 µM (inactive) throughout.
Consider `CN(C)CC#Cc1cccc(-c2nc(C(=O)NCc3ccc4c(c3)OCO4)cc3c2[C@H](CCO)N([S+]([O-])C(C)(C)C)C3)c1` (some centres undefined), for which the AC50 in test [12] was 1.38 µM (active).
With `CN1CCN(c2ncnc3c2c(-c2ccccc2)cn3-c2ccc(F)cc2)CC1`, the IC50 in test [13] is > 29.9 µM (inactive); in test [16], 3.17 µM (active). In addition, the EC50 was > 29.9 µM (inactive) in test [14] and 10 µM (inactive) in test [15].
As to `O=C(C1CCC1)N1CC(=O)N2[C@H](C1)[C@H](c1ccc(C#Cc3cccc(F)c3)cc1)[C@@H]2CO`, the AC50 in test [17] was > 70 µM (inactive); on Paired box protein Pax-8, 10.6 µM (active); in test [18], 18 µM (active); in test [8], 9.85 µM (active).
As to `CCN1CCN(c2cc(C)c3cc(NC(=O)c4cc(OC)cc(OC)c4)ccc3n2)CC1`, the AC50 in [19] is 17.1 µM (active); in [20], 11.2 µM (active).
Regarding `N#Cc1ccc(-c2ccc3c(c2)[C@@H]2[C@@H](CCN2C(=O)C2CCCCC2)[C@H](CO)N3)cc1`, the AC50 in test [21] was 46.8 µM (active).
Turning to `C[C@@H]1CN([C@H](C)CO)C(=O)CCCn2cc(nn2)CO[C@H]1CN(C)C(=O)Nc1ccc(-c2cccs2)cc1`, the AC50 in [17] is > 70 µM (inactive); at Paired box protein Pax-8, < 0.26 µM (active); in [22], 1.65 µM (active).
Turning to `COc1ccc(NC(=O)CN2C3CCCC2CC(NC(=O)c2cc(OC)c(OC)c(OC)c2)C3)cc1` (centres undefined), the IC50 in test [23] and in [24] was > 79 µM (inactive) throughout.
Consider `COc1ccc(C(=O)NCc2nc(C)cs2)cc1OC1CCN(C(C)C)CC1`, for which the IC50 in test [25] is 77.3 µM (inactive).
`CCSc1nsc(NC(=O)Nc2cccc(OC)c2)n1`: the IC50 in test [26] and in test [27] was > 69.5 µM (inactive) each time.
As for `COc1ccc(OC)c(/C=N\NC(=O)c2c(C)nc3cc(C)ccn23)c1`, the EC50 on Kallikrein-7 was > 69.6 µM (inactive).
For `Clc1ccc2c(c1)C(C1=NCCN1)c1ccccc1CS2` (centres undefined), the concentration at half-maximal activity (AC50) in test [28] is 42.5 µM (active) and 54 µM (active); in test [29] it was > 70 µM (inactive).
As to `N=c1oc2cc(O)ccc2cc1C(=O)Nc1ccc(Cl)cc1`, the AC50 in the test “cells [30]” is > 52 µM (inactive); in “cells [31]” it was > 52 µM (inactive); in test [32], > 52 µM (inactive); in the test “cells [33]”, 1.95 µM (active).

By AC50 is commonly meant the concentration at which the activity in the assay is half-maximal. The term IC50 denotes the midpoint of a concentration-inhibition curve. As usually defined, the EC50 is the midpoint of the concentration-response curve.
